Assay: solubility of 2,6-naphthalene dicarboxylic acid with respect to high temperature and high pressure water
Assay type: physicochemical
Details: for solubility in water containing 5 wt % of isopropanol: water containing 5 wt % of isopropanol (entrainer)
Procedure: Although the quantity of water for use in the dissolving process differs depending upon the dissolving temperature, the quantity of water must be larger than a quantity (the saturated solubility) in which coarse 2,6-naphthalene dicarboxylic acid can be completely dissolved. In an example case where water containing 5 wt % of isopropanol is used and the dissolving temperature is 300° C., five parts or more by weight of water with respect to one part by weight of coarse 2,6-naphthalene dicarboxylic acid is required. An example of the results of measurements of the solubility of 2,6-naphthalene dicarboxylic acid with respect to high temperature and high pressure water is shown in Table 1.

## O=C(O)c1ccc2cc(C(=O)O)ccc2c1 [2,6-naphthalene dicarboxylic acid]
225 °C, 27 atm
  Solubility in water: 0.36 wt %
250 °C, 40 atm
  Solubility in water: 1.13 wt %
250 °C
  solubility in water containing 5 wt % of isopropanol: 4.2 wt %
275 °C, 60 atm
  Solubility in water: 3.28 wt %
300 °C, 86 atm
  Solubility in water: 8.34 wt %
300 °C
  solubility in water containing 5 wt % of isopropanol: 18.0 wt %
325 °C, 121 atm
  Solubility in water: 18.6 wt %
375 °C, 230 atm
  Solubility in water: 34.2 wt %
386 °C, 230 atm
  Solubility in water: 36.7 wt %
About 370 °C, critical temperature for water
  solubility with respect to water (dissolved): ≥ 30 wt %

Reference: patent US5449820A, “Method of preparing high purity 2,6-naphthalene dicarboxylic acid” (Mitsubishi Chemical Corporation, priority 1994, dated 1995)
